Reference: US20230066946A1, “1,5-DIPHENYLPYRAZOLYL-3-OXYALKYL ACIDS AND 1-PHENYL-5-THIENYLPYRAZOLYL-3-OXYALKYL ACIDS AND THE USE THEREOF FOR CONTROL OF UNWANTED PLANT GROWTH” (Bayer Aktiengesellschaft, priority 2019, published 2023)

What was measured:
[1] = tested on: CYPES; assay: Pre-emergence herbicidal action against CYPES; assay type: in vivo, Cyperus esculentus; conditions: scored visually after about 3 weeks vs untreated controls, 100% = plants have died, 0% = like control plants
Source text: (§1) Seeds of mono- and dicotyledonous weed plants are placed in plastic pots in sandy loam soil (doubly sown with one species each of mono- or dicotyledonous weed plants per pot) and covered with soil. The compounds of the invention, formulated in the form of wettable powders (WP) or as emulsion concentrates (EC), are then applied onto the surface of the covering soil as aqueous suspension or emulsion with addition of 0.5% additive at a water application rate equivalent to 600 litres per hectare. After the treatment, the pots are placed in a greenhouse and kept under good growth conditions for the trial plants. After about 3 weeks, the effect of the preparations is scored visually in comparison with untreated controls as percentages. For example, 100% activity=the plants have died, 0% activity=like control plants. [table] Tables 4.1-4.15 below show the effects of selected compounds of the general formula (I) according to Tables 1 to 3 on various harmful plants at an application rate corresponding to 1280 or 320 g/ha, which have been obtained by the aforementioned experimental method.

[2] = tested on: ECHCG; assay: Pre-emergence herbicidal action against ECHCG; assay type: in vivo, Echinochloa crus-galli; conditions: scored visually after about 3 weeks vs untreated controls, 100% = plants have died, 0% = like control plants
Outline: (§2)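 Weed seeds were sown in sandy loam soil in pots and covered; compounds formulated as WP or EC were sprayed onto the covering soil as aqueous suspension/emulsion with 0.5% additive at 600 L/ha water. Application rate 1280 or 320 g/ha. Greenhouse grown; visual % activity vs untreated controls after about 3 weeks.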

[3] = tested on: SETVI; assay: Pre-emergence herbicidal action against SETVI; assay type: in vivo, Setaria viridis; conditions: 1280 g/ha, scored visually after about 3 weeks vs untreated controls
Outline: as §2

[4] = tested on: AMARE; assay: Pre-emergence herbicidal action against AMARE; assay type: in vivo, Amaranthus retroflexus; conditions: scored visually after about 3 weeks vs untreated controls; for Pre-emergence action at 320 g/ha against AMARE in %: 100% = plants have died, 0% = like control plants; for Pre-emergence action against AMARE in %: 1280 g/ha
Outline: as §2

[5] = tested on: MATIN; assay: Pre-emergence herbicidal action against MATIN; assay type: in vivo, Matricaria inodora; conditions: 1280 g/ha, scored visually after about 3 weeks vs untreated controls
Outline: as §2

[6] = tested on: STEME; assay: Pre-emergence herbicidal action against STEME; assay type: in vivo, Stellaria media; conditions: 1280 g/ha, scored visually after about 3 weeks vs untreated controls
Outline: as §2

[7] = tested on: VIOTR; assay: Pre-emergence herbicidal action against VIOTR; assay type: in vivo, Viola tricolor; conditions: 1280 g/ha, scored visually after about 3 weeks vs untreated controls
Source text: as §1

[8] = tested on: VERPE; assay: Pre-emergence herbicidal action against VERPE; assay type: in vivo, Veronica persica; conditions: 320 g/ha, scored visually after about 3 weeks vs untreated controls
Outline: as §2

[9] = tested on: ALOMY; assay: Post-emergence herbicidal action against ALOMY; assay type: in vivo, Alopecurus myosuroides; conditions: 1280 g/ha, post-emergence at one-leaf stage, rated visually after about 3 weeks vs untreated controls
Description: (§3) [table] Seeds of mono- and dicotyledonous weed plants are placed in plastic pots in sandy loam soil (twin sowing with one species each of mono- or dicotyledonous weed plants per pot), covered with soil and cultivated in a greenhouse under controlled growth conditions. 2 to 3 weeks after sowing, the test plants are treated at the one-leaf stage. The compounds of the invention, formulated in the form of wettable powders (WP) or as emulsion concentrates (EC), are applied to the green parts of the plants as aqueous suspension or emulsion with addition of 0.5% additive at a water application rate equivalent to 600 litres per hectare. After the test plants have been kept in the greenhouse under optimum growth conditions for about 3 weeks, the activity of the preparations is rated visually in comparison to untreated controls. For example, 100% activity=the plants have died, 0% activity=like control plants. Tables 5.1-5.16 below show the effects of selected compounds of the general formula (I) according to Tables 1 to 3 on various harmful plants at an application rate corresponding to 1280 or 320 g/ha, which have been obtained by the aforementioned experimental method.

[10] = tested on: AVEFA; assay: Post-emergence herbicidal action against AVEFA; assay type: in vivo, Avena fatua; conditions: 1280 g/ha, post-emergence at one-leaf stage, rated visually after about 3 weeks vs untreated controls
Description: as §3

[11] = tested on: ECHCG; assay: Post-emergence herbicidal action against ECHCG; assay type: in vivo, Echinochloa crus-galli; conditions: 1280 g/ha, post-emergence at one-leaf stage, rated visually after about 3 weeks vs untreated controls
Outline: (§4)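 Herbicidal effect, rated visually about 3 weeks after treatment as percent versus untreated controls. Test plants in sandy loam had received a foliar application at the one-leaf stage of 1280 or 320 g/ha, formulated as WP or EC with 0.5% additive in 600 litres per hectare water.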

[12] = tested on: SETVI; assay: Post-emergence herbicidal action against SETVI; assay type: in vivo, Setaria viridis; conditions: 1280 g/ha, post-emergence at one-leaf stage, rated visually after about 3 weeks vs untreated controls
Outline: as §4

[13] = tested on: AMARE; assay: Post-emergence herbicidal action against AMARE; assay type: in vivo, Amaranthus retroflexus; conditions: visual rating about 3 weeks after treatment
Outline: as §4

[14] = tested on: MATIN; assay: Post-emergence herbicidal action against MATIN; assay type: in vivo, Matricaria inodora; conditions: visual rating about 3 weeks after treatment
Outline: as §4

[15] = tested on: POLCO; assay: Post-emergence herbicidal action against POLCO; assay type: in vivo, Polygonum convolvulus; conditions: 320 g/ha, visual rating about 3 weeks after treatment
Outline: as §4

[16] = tested on: STEME; assay: Post-emergence herbicidal action against STEME; assay type: in vivo, Stellaria media; conditions: visual rating about 3 weeks after treatment
Outline: as §4

[17] = tested on: VERPE; assay: Post-emergence herbicidal action against VERPE; assay type: in vivo, Veronica persica; conditions: 320 g/ha, visual rating about 3 weeks after treatment
Outline: as §4

[18] = tested on: harmful plants; assay: Pre-emergence herbicidal action, summary of Tables 4.1-4.15; assay type: in vivo; conditions: result in words
Outline: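 Percent herbicidal action (100% = plants dead, 0% = like controls) was assessed visually about 3 weeks after treatment. Application rates of 1280 or 320 g/ha were applied to the covering soil of freshly sown sandy-loam pots, in 600 l/ha water with 0.5% additive, before emergence.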

[19] = tested on: PHBPU; assay: Pre-emergence herbicidal action against PHBPU; assay type: in vivo, Pharbitis purpurea; conditions: 1280 g/ha, scored visually after about 3 weeks vs untreated controls
Source text: as §1

[20] = tested on: PHBPU; assay: Post-emergence herbicidal action against PHBPU; assay type: in vivo, Pharbitis purpurea; conditions: 320 g/ha, visual rating about 3 weeks after treatment
Outline: as §4

[21] = tested on: VIOTR; assay: Post-emergence herbicidal action against VIOTR; assay type: in vivo, Viola tricolor; conditions: 320 g/ha, visual rating about 3 weeks after treatment
Outline: as §4

Structure (SMILES)	Pre-emergence action at 1280 g/ha against CYPES in % [1] [%]	Pre-emergence action at 1280 g/ha against ECHCG in % [2] [%]	Pre-emergence action against SETVI in % [3] [%]	Pre-emergence action at 320 g/ha against AMARE in % [4] [%]	Pre-emergence action against AMARE in % [4] [%]	Pre-emergence action against MATIN in % [5] [%]	Pre-emergence action against STEME in % [6] [%]	Pre-emergence action against VIOTR in % [7] [%]	Pre-emergence action against VERPE in % [8] [%]	Post-emergence action against ALOMY in % [9] [%]	Post-emergence action against AVEFA in % [10] [%]	Post-emergence action against AMARE in % ([13]; 320 g/ha) [%]	Post-emergence action against AMARE in % ([13]; 1280 g/ha) [%]	Post-emergence action against MATIN in % ([14]; 320 g/ha) [%]	Post-emergence action against MATIN in % ([14]; 1280 g/ha) [%]	Post-emergence action against POLCO in % [15] [%]	Post-emergence action against STEME in % ([16]; 320 g/ha) [%]	Post-emergence action against STEME in % ([16]; 1280 g/ha) [%]	Post-emergence action against VERPE in % [17] [%]	Post-emergence action against PHBPU in % [20] [%]	further results
COC(=O)COc1nn(-c2ccccc2F)c(-c2ccccc2)c1C#N [I-022]	100	80	100	100	100	90	90	90	100	80	80	80	80	80	80	80	80	80	80	–	Post-emergence action against ECHCG in % [11]: 80%; Post-emergence action against SETVI in % [12]: 80%; herbicidal efficacy against harmful plants in the case of pre-emergence treatment [18]: good herbicidal efficacy
COC(=O)COc1nn(-c2ccccc2F)c(-c2ccccc2)c1Cl [I-015]	–	–	90	90	90	90	90	–	90	–	–	80	80	90	90	–	–	–	90	80	Pre-emergence action against PHBPU in % [19]: 100%
COC(=O)COc1nn(-c2cccc(F)c2)c(-c2ccc(F)cc2)c1C#N [I-012]	100	–	–	100	100	100	–	–	–	–	80	80	80	–	–	–	80	80	–	80	Post-emergence action against VIOTR in % [21]: 80%
C#Cc1c(OCC(=O)OC)nn(-c2cccc(F)c2)c1-c1cccc(F)c1 [I-069]	–	80	90	90	90	90	90	100	–	–	–	–	90	–	–	–	–	80	–	80	Pre-emergence action against PHBPU in % [19]: 80%; herbicidal efficacy against harmful plants in the case of pre-emergence treatment [18]: good herbicidal efficacy
COC(=O)COc1nn(-c2cccc(Cl)c2)c(-c2ccc(F)c(F)c2)c1C#N [I-051]	–	–	–	–	90	–	–	90	–	80	80	–	–	90	90	80	–	80	80	80	Post-emergence action against VIOTR in % [21]: 90%
